Laboratory results reported in patent US6855730B2, “3-methylidenyl-2-indolinone modulators of protein kinase” (Sugen, Inc., priority 1998, dated 2005).

Target: T1, human flk-1 (Homo sapiens, UniProt P35968)
T1 construct: host or cells: Flk-1/NIH cells (NIH fibroblasts)
Test: Biochemical FLK-1 assay (flk-1 autophosphorylation ELISA)
Conditions: read-out: bio FLK1 IC50 (μM) % if inhibition at 100
Method in brief: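 Flk-1 from lysates of NIH fibroblasts over-expressing human flk-1 (50 μg/well) was captured on anti-flk-1 antibody-coated plates, then autophosphorylated with test compounds and ATP (0.3 mM working solution) for 60 min at room temperature before EDTA stop. Phosphotyrosine was detected with biotinylated 4G10, avidin-biotin peroxidase and TMB at 450 nm.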

T1 sequence (P35968 20-1356): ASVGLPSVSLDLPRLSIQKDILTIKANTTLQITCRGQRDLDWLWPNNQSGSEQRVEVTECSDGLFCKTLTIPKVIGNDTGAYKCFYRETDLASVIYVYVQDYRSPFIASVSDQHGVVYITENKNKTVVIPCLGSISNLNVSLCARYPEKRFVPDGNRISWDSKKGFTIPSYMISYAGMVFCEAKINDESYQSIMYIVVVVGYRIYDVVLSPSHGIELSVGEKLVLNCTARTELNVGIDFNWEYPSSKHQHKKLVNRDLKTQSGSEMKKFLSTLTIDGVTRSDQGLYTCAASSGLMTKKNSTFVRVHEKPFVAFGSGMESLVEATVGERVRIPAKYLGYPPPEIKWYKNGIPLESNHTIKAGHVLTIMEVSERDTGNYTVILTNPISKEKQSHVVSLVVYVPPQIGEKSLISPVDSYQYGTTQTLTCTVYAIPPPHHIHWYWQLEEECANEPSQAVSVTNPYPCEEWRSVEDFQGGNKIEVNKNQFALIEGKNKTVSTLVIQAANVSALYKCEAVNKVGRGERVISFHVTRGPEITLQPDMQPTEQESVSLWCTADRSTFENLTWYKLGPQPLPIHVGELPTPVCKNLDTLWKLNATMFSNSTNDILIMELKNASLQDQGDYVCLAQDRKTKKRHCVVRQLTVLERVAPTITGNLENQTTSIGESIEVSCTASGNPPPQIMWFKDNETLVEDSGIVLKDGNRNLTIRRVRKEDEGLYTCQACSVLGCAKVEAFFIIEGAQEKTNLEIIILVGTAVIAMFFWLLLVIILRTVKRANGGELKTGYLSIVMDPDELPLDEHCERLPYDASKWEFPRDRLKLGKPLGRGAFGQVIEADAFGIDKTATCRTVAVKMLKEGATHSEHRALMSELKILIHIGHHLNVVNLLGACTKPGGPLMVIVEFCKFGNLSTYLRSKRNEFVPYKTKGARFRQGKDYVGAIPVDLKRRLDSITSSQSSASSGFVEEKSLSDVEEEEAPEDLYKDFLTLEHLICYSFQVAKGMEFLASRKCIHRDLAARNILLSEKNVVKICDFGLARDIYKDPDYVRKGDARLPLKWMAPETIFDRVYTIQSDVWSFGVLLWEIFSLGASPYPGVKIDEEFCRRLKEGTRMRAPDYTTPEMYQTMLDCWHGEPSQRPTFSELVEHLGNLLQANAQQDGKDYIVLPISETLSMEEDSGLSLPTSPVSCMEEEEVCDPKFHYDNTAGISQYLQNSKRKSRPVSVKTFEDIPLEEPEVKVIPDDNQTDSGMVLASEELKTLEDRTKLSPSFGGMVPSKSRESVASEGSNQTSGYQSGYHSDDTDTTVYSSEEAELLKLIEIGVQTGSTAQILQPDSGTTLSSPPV

IC50	Compound
1 µM	CCOc1cccc(-c2ccc3c(c2)NC(=O)/C3=C\c2[nH]cc(C)c2CCC(=O)O)c1 [Example 224, 3-{2-[6-(3-Ethoxyphenyl)-2-oxo-1,2-dihydro-indol-3-ylidenemethyl]-4-methyl-1H-pyrrol-3-yl}-propionic acid]
0.97 µM	O=C1Nc2ccccc2/C1=C/c1[nH]c2c(c1CCC(=O)N1CCOCC1)CCCC2 [Example 200, 3-[3-(3-Morpholin-4-yl-3-oxopropyl)-4,5,6,7-tetrahydro-1H-indol-2-ylmethylene]-1,3-dihydroindol-2-one]
0.13 µM	NC(=O)CCc1c(/C=C2\C(=O)Nc3ccccc32)[nH]c2c1CCCC2 [Example 199, 3-[2-(2-Oxo-1,2-dihydroindol-3-ylidenemethyl)-4,5,6,7-tetrahydro-1H-indol-3-yl]-propionamide]
50.6 µM	O=C(O)CCc1ccccc1/C=C1/C(=O)Nc2ccccc21 [Example 214, 3-[2-(2-Oxo-1,2-dihydroindol-3-ylidenemethyl)-phenyl]-propionic acid]
< 0.78 µM	COc1ccc2c(c1)/C(=C/c1[nH]cc(C)c1CCC(=O)O)C(=O)N2 [Example 222, 3-[2-(5-Methoxy-2-oxo-1,2-dihydroindol-3-ylidenemethyl)-4-methyl-1H-pyrrol-3-yl]-propionic acid]
0.14 µM	O=C(O)CCc1c(/C=C2\C(=O)Nc3ncccc32)[nH]c2c1CCCC2 [Example 203, 3-[2-(2-Oxo-1,2-dihydropyrrolo[2,3-b]pyridin-3-ylidenemethyl)-4,5,6,7-tetrahydro-1H-indol-3-yl]-propionic acid]
7.44 µM	CN(C)CCCc1c(/C=C2\C(=O)Nc3ccccc32)[nH]c2c1CCCC2 [Example 198, 3-[3-(3-Dimethylaminopropyl)-4,5,6,7-tetrahydro-1H-indol-2-ylmethylene]-1,3-dihydroindol-2-one]
0.02 µM	Cc1cccc2c1/C(=C/c1[nH]c3c(c1CCC(=O)O)CCCC3)C(=O)N2 [Example 193, 3-[2-(4-Methyl-2-oxo-1,2-dihydroindol-3-ylidenemethyl)-4,5,6,7-tetrahydro-1H-indol-3-yl]-propionic acid]
28.2 µM	COc1cccc(-c2ccc3c(c2)NC(=O)/C3=C\c2[nH]cc(C)c2CCC(=O)O)c1 [Example 223, 3-{2-[6-(3-Methoxyphenyl)-2-oxo-1,2-dihydro-indol-3-ylidenemethyl]-4-methyl-1H-pyrrol-3-yl}-propionic acid]
0.03 µM	O=C(O)CCc1c(/C=C2\C(=O)Nc3cc(Cl)ccc32)[nH]c2c1CCCC2 [Example 195, 3-[2-(6-Chloro-2-oxo-1,2-dihydroindol-3-ylidenemethyl)-4,5,6,7-tetrahydro-1H-indol-3-yl]-propionic acid]
< 0.78 µM	CC(C)NS(=O)(=O)c1ccc2c(c1)C(=Cc1[nH]c3c(c1CCC(=O)O)CCCC3)C(=O)N2 [Example 208, 3-[2-(5-Isopropylaminosulfonyl-2-oxo-1,2-dihydroindol-3-ylidenemethyl)-4,5,6,7-tetrahydro-1H-indol-3-yl]-propionic acid]
> 50 µM	COc1c(C(C)C)cc(/C=C2/C(=O)Nc3ccc(Cl)cc32)cc1C(C)C [Example 2, 5-Chloro-3-(3,5-diisopropyl-4-methoxybenzylidene)-1,3-dihydroindol-2-one]
2.91 µM	Cc1c[nH]c(/C=C2\C(=O)Nc3ccc(Cl)cc32)c1CCC(=O)O [Example 216, 3-[2-(5-Chloro-2-oxo-1,2-dihydroindol-3-ylidenemethyl)-4-methyl-1H-pyrrol-3-yl]-propionic acid]
0.36 µM	COc1cccc(-c2ccc3c(c2)NC(=O)/C3=C\c2[nH]c3c(c2CCC(=O)O)CCCC3)c1 [Example 204, 3-{2-[6-(3-Methoxyphenyl)-2-oxo-1,2-dihydro-indol-3-ylidenemethyl]-4,5,6,7-tetrahydro-1H-indol-3-yl}-propionic acid]
0.03 µM	O=C(O)CCc1c(/C=C2\C(=O)Nc3ccc(Br)cc32)[nH]c2c1CCCC2 [Example 192, 3-[2-(5-Bromo-2-oxo-1,2-dihydroindol-3-ylidenemethyl)-4,5,6,7-tetrahydro-1H-indol-3yl]-propionic acid]
0.02 µM	O=C(O)CCc1c(/C=C2\C(=O)Nc3ccc(Cl)cc32)[nH]c2c1CCCC2 [Example 191, 3-[2-(5-Chloro-2-oxo-1,2-dihydroindol-3-ylidenemethyl)-4,5,6,7-tetrahydro-1H-indol-3-yl]-propionic acid]
0.89 µM	COc1ccc2c(c1)NC(=O)/C2=C\c1[nH]c2c(c1CCC(=O)O)CCCC2 [Example 196, 3-[2-(6-Methoxy-2-oxo-1,2-dihydroindol-3-ylidenemethyl)-4,5,6,7-tetrahydro-1H-indol-3-yl]-propionic acid]
2.1 µM	CN(C)C(=O)CCc1c(/C=C2\C(=O)Nc3ccccc32)[nH]c2c1CCCC2 [Example 197, N,N-Dimethyl-3-[2-(2-oxo-1,2-dihydroindol-3-ylidenemethyl)-4,5,6,7-tetrahydro-1H-indol-3-yl]-propionamide]
0.63 µM	O=C(CCc1c(/C=C2\C(=O)Nc3ccccc32)[nH]c2c1CCCC2)NCCN1CCOCC1 [Example 202, N-(2-Morpholin-4-ylethyl)-3-[2-(2-oxo-1,2-dihydroindol-3-ylidenemethyl)-4,5,6,7-tetrahydro-1H-indol-3-yl]-propionamide]
0.001 µM	Cc1ccc2c(c1)/C(=C/c1[nH]c3c(c1CCC(=O)O)CCCC3)C(=O)N2 [Example 194, 3-[2-(5-Methyl-2-oxo-1,2-dihydroindol-3-ylidenemethyl)-4,5,6,7-tetrahydro-1H-indol-3-yl]-propionic acid]
20.4 µM	O=C1Nc2ccc(N=Cc3cc4ccccc4[nH]3)cc2C1=Cc1cc2ccccc2[nH]1 [Example 171, 3-(1H-indol-2-ylmethylene)-5-[(1H-indol-2-ylmethylene)-amino]-1,3-dihydroindol-2-one]
0.06 µM	O=C(O)CCc1c(/C=C2\C(=O)Nc3ccccc32)[nH]c2c1CCCC2 [Example 190, 3-[2-(2-Oxo-1,2-dihydro-indol-3-ylidenemethyl)-4,5,6,7-tetrahydro-1H-indol-3-yl]-propionic acid]
> 50 µM	COc1c(C(C)C)cc(/C=C2/C(=O)Nc3ccccc32)cc1C(C)C [Example 1, 3-(3,5-Diisopropyl-4-methoxybenzylidene)-1,3-dihydroindol-2-one]
0.16 µM	CNC(=O)CCc1c(/C=C2\C(=O)Nc3ccccc32)[nH]c2c1CCCC2 [Example 201, N-Methyl-3-[2-(2-oxo-1,2-dihydroindol-3-ylidenemethyl)-4,5,6,7-tetrahydro-1H-indol-3-yl]-propionamide]
1.47 µM	COc1ccc2c(c1)NC(=O)/C2=C\c1[nH]cc(C)c1CCC(=O)O [Example 217, 3-[2-(6-Methoxy-2-oxo-1,2-dihydroindol-3-ylidenemethyl)-4-methyl-1H-pyrrol-3-yl]-propionic acid]

Compound	IC50
Cc1c[nH]c(/C=C2\C(=O)Nc3cccc(C)c32)c1CCC(=O)O [Example 218, 3-[2-(4-Methyl-2-oxo-1,2-dihydroindol-3-ylidenemethyl)-4-methyl-1H-pyrrol-3-yl]-propionic acid]	0.2 µM
Cc1c[nH]c(C=C2C(=O)Nc3cc(Cl)ccc32)c1CCC(=O)O [Example 219, 3-[2-(6-Chloro-2-oxo-1,2-dihydroindol-3-ylidenemethyl)-4-methyl-1H-pyrrol-3-yl]-propionic acid]	0.19 µM
O=C(O)CCc1c(/C=C2\C(=O)Nc3cc(-c4ccccc4)ccc32)[nH]c2c1CCCC2 [Example 206, 3-[2-(2-oxo-6-phenyl-1,2-dihydroindol-3-ylidenemethyl)-4,5,6,7-tetrahydro-1H-indol-3-yl]-propionic acid]	6.08 µM
Cc1c[nH]c(/C=C2\C(=O)Nc3ccc(Br)cc32)c1CCC(=O)O [Example 220, 3-[2-(5-Bromo-2-oxo-1,2-dihydroindol-3-ylidenemethyl)-4-methyl-1H-pyrrol-3-yl]-propionic acid]	0.35 µM
COc1ccc(-c2ccc3c(c2)NC(=O)/C3=C\c2[nH]c3c(c2CCC(=O)O)CCCC3)cc1 [Example 205, 3-{2-[6-(4-Methoxyphenyl)-2-oxo-1,2-dihydro-indol-3-ylidenemethyl]-4,5,6,7-tetrahydro-1H-indol-3-yl}-propionic acid]	0.52 µM
